Values of other authors, collected in patent CN103893129A, “帕潘立酮缓释微球及其注射剂和该缓释微球的制备方法” (CHONGQING DAXIN PHARMACEUTICALS Co Ltd OF PKU INTERNATIONAL …, priority 2012, dated 2014).

Test system: schizophrenia (精神分裂症)

Cc1nc2n(c(=O)c1CCN1CCC(c3noc4cc(F)ccc34)CC1)CCCC2O (centres unmarked) [帕潘立酮, 6,7,8,9-四氢-3-(2-(4-(6-氟-1,2-苯并异唑-3-基)-1-哌啶基)乙基)-9-羟基-2-甲基-4H-吡啶并[2,1-a]嘧啶-4-酮]
efficacy on positive and negative symptoms of schizophrenia (clinical): 对精神分裂症阳性症状和阴性症状均有疗效 | relapse rate of schizophrenia (patients): 可有效延迟精神分裂症的复发率
